This note sets out measurements from PubChem BioAssay AID1278 (The Scripps Research Institute Molecular Screening Center, 2008).

Calls of active or inactive are those of the source. How the calls were made is not given here. Bounds are passed on as bounds.

In this experiment the target is Neuropeptide Y receptor type 2 (Homo sapiens) (UniProt P49146). The experiment in a line: NPY-Y2 antagonist potency, selectivity check, dose response, counter-screen for NPY-Y1 antagonist project, cell-based (AID 1278). The settings on record: NPY-Y2 expressing cells, antagonism, cell-based HTS. For orientation: Counterscreens check selectivity or assay interference.
Sequence of Neuropeptide Y receptor type 2 (Homo sapiens) (P49146 whole entry, looked up): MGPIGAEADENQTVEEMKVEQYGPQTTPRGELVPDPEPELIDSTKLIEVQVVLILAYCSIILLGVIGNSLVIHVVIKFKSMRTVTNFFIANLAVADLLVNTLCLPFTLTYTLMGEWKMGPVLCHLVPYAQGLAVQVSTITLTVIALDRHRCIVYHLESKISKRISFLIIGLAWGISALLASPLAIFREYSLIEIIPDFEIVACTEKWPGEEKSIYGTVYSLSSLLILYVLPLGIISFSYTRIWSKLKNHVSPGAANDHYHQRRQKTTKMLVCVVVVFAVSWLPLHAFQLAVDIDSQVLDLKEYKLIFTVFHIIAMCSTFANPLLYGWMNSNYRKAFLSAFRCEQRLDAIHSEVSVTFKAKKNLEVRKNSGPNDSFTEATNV

The IC50 is the concentration at which inhibition is half-maximal. As for `CCc1cc(-c2[nH]ncc2-c2ccc3c(c2)OCO3)c(O)cc1O`, the IC50 is < 35 µM (inactive).
